Converted amounts (≈) assume the structure as drawn.
Legend:
MIP/SP cells [1] = assay: caspase 8/9 inhibition, cell viability by MTS, MIP/SP; format: cell-based, human
Procedure: (§1) caspase 8/9 Inhibition: Cells were seeded (96-well plates), and incubated 24 hours later (˜60% confluence) with 10-50 μM of Caspase 8-like inhibitor (z-IETD-fmk, Sigma) or Caspase 9-like inhibitor (z-LEHDfink•TFA, Sigma) for 30 minutes, followed by incubation with 1000 μM 5-FU for an additional 24 hours. Cell viability was assessed by MTS assay.

MIP/ZEO cells [2] = assay: caspase 8/9 inhibition, cell viability by MTS, MIP/ZEO; format: cell-based, human
Procedure: as §1

Procaspase 8 = target: T1, Procaspase 8 (Homo sapiens, UniProt Q14790); assay: immunoprecipitation of Procaspase 8 with truncated SPARC polypeptides; format: binding; conditions: truncated SPARC polypeptide near amino terminus (MIP/NT), FIG. 8
T1 construct: endogenous in cells; host or cells: MIP101-derived cells expressing SPARC fragments (MIP/NT, MIP/FS, MIP/EC)
Procedure: Immunopreciptation was performed with anti-histidine tag antibody (IP: His) (See FIG. 8A) or an anti-Caspase 8 antibody (IP: Capsaase 8) (See FIG. 8B) in the presence of Procaspase 8 and truncated SPARC polypeptides comprising a sequence near the SPARC amino terminus (SEQ ID NO: 20) (MIP/NT), a sequence from the SPARC follistatin-like domain (SEQ ID NO: 22) (MIP/FS), a sequence from the SPARC extracellular domain (SEQ ID NO: 24) (MIP/EC) or a control antibody (IgG).

[3] = in vitro cytotoxicity of ABX and Taxol; format: cell-based; conditions: Homo sapiens, A-431; A431 line
[4] = tested on: Caspase 3/7 activity in MIP/ZEO cells; assay: Caspase 3/7 assay (Caspase-Glo), MIP/ZEO; format: cell-based, human
Procedure: (§2) Cell viability was assessed by MTS assay (Promega) at 490 nm. […] Total cell lysates were isolated and 20 μg of total protein/sample were used in Caspase-Glo 3/7 Assay (Promega), using a 1:1 dilution of Caspase-Glo 3/7 Substrate. Relative luminescence units (RLU) was quantified using a Viktor2 1420 Multilabel counter (Perkin Elmer).

[5] = tested on: Caspase 8 in MIP/SP tumors; assay: Caspase 8 protein activity in MIP/SP tumor xenografts; format: in vivo, nude mice; conditions: MIP/SP tumors from animals treated with 5-FU (FIG. 6C)
Procedure: In addition, tumor xenografts of MIP/ZEO and MIP/SP cells from nude mice treated with either 5-FU (three consecutive days) or saline, were collected after the 1st cycle of treatment and homogenized (Kinematica, POLYTRON-Aggregate). Lysates were then prepared for immunoblot or RT-PCR. […] Similarly, cells seeded on coverslips at 150,000 cells/well in a E-well plate, treated 24 hours later with 1000 μM 5-FU for 2 hours were then fixed in 2% paraformaldehyde and processed for immunofluorescence staining as previously described [27]. In both cases, α-caspase 8 (1:50, paraffin-embedded tissues; 1:100, cells on coverslips) antibody was used and incubated overnight at 4° C., and counterstained with DAPI. Zeiss Axioplan 2 Fluorescence microscope was used for image capture.

MIP/SP cells [6] = assay: Cell viability (MTS) assay after Caspase 8 siRNA, MIP/SP; format: cell-based, human; conditions: Caspase 8 gene silencing, after 5-FU treatment (0-1200 μM) (FIG. 3A)
HCT116 cells = assay: Cell viability (MTS) assay after Caspase 8 siRNA, HCT116; format: cell-based, human; conditions: HCT116, Caspase 8 siRNA+5-FU
Procedure: (§3) Cell Lines: MIP101 and HCT116 (ATCC) human CRC cells were maintained in DMEM media supplemented with 1% penicillin-streptomycin, 1% kanamycin (Invitrogen) and 10% newborn calf serum at 37° C. and 5% CO2. […] MIP101 transfected with empty vector (VIIP/ZEO) and MIP101 cells stably transfected with SPARC (MIP/SP), were also supplemented with 0.01% zeocin (Invitrogen).
(§4) Cell viability was assessed by MTS assay (Promega) at 490 nm. Caspase 3/7 Assay: Cells were transiently transfected with 40 nM of Caspase 8 siRNA for 48 hours, and incubated with 1000 μM 5-FU for another 48 hours. Total cell lysates were isolated and 20 μg of total protein/sample were used in Caspase-Glo 3/7 Assay (Promega), using a 1:1 dilution of Caspase-Glo 3/7 Substrate. Relative luminescence units (RLU) was quantified using a Viktor2 1420 Multilabel counter (Perkin Elmer).

[7] = tested on: Caspase 3 activation in MIP/5FU cells; assay: Caspase 3/7 assay (Caspase-Glo), MIP/5FU; format: cell-based, human; conditions: Caspase 8 siRNA or scramble control (FIG. 4A)
Procedure: as §4

MIP/SP cells [8] = assay: TUNEL assay, MIP/SP; format: cell-based, human
Procedure: (§5) TUNEL Assay: Cells were seeded (24-well plates) to achieve ˜60% confluence 24 hours later for transient transfection with Caspase 8 siRNA. 36 hours later, cells were incubated with 1000 μM 5-FU for 36 hours, harvested (suspension and attached cells) and fixed onto glass slides with Shandon cytospin at 2000 rpm for 10 minutes and stained as per manufacturer's instructions (Promega). The number of TUNEL-positive cells was counted and averaged from four different fields (n=4 independent experiments, with slides read independently by two individuals in a blinded fashion).

MIP/5FU cells [9] = assay: TUNEL assay, MIP/5FU; format: cell-based, human; conditions: 5-FU treatment (FIG. 4B, C)
Procedure: as §5

[10] = tested on: Caspase 3/7 activity in MIP/SP cells; assay: Caspase 3/7 assay (Caspase-Glo), MIP/SP; format: cell-based, human
Procedure: as §2

MIP/ZEO cells [11] = assay: TUNEL assay, MIP/ZEO; format: cell-based, human; conditions: 5-FU
Procedure: as §5

MIP/ZEO cells [12] = assay: Cell viability (MTS) assay after Caspase 8 siRNA, MIP/ZEO; format: cell-based, human; conditions: Caspase 8 knock-down
Procedure: as §3, §4

MIP/5FU cells [13] = assay: Cell viability (MTS) assay after Caspase 8 siRNA, MIP/5FU; format: cell-based, human; conditions: with Caspase 8 knock-down (FIG. 3B)
Procedure: as §3, §4

[14] = tested on: Caspase 8 expression in MIP 101 tumor xenografts; assay: Caspase 8 expression in MIP 101 mouse tumor xenografts; format: in vivo, NIH nude mice; conditions: mice administered SPARC as single agent (FIG. 6D)
Procedure: Animal Studies: Tumors harvested from xenografts from animals (NIH nude mice, 6 weeks old, Taconic Laboratories) were used for histology, RT-PCR or immunoblot. 2×10^6 MIP101 cells were injected into the left flank.
Experimental groups (2 animals/group) for this study included treatment with: SPARC, SPARC+5-FU, 5-FU only, and saline. In addition, tumor xenografts of MIP/ZEO and MIP/SP cells from nude mice treated with either 5-FU (three consecutive days) or saline, were collected after the 1st cycle of treatment and homogenized (Kinematica, POLYTRON-Aggregate). Lysates were then prepared for immunoblot or RT-PCR. All animals received care according to standard animal care protocol and guidelines. […] Similarly, cells seeded on coverslips at 150,000 cells/well in a E-well plate, treated 24 hours later with 1000 μM 5-FU for 2 hours were then fixed in 2% paraformaldehyde and processed for immunofluorescence staining as previously described. In both cases, α-caspase 8 (1:50, paraffin-embedded tissues; 1:100, cells on coverslips) antibody was used and incubated overnight at 4° C., and counterstained with DAPI. Zeiss Axioplan 2 Fluorescence microscope was used for image capture.

[15] = target: T2, interaction between Bcl-2 and Procaspase 8 (Homo sapiens, UniProt Q14790); assay: co-immunoprecipitation of Bcl-2 and Procaspase 8 with exogenous SPARC; format: binding; conditions: addition of exogenous SPARC, 10 μg/ml for 72-hrs; resistant cell lines (FIG. 9C)
T2 construct: lysates were separated into nuclear, cytosolic, and membrane fractions; endogenous in cells; host or cells: MIP/5FU (MIP101 resistant to 5-FU) and MiaPaca/CPT cells
Procedure: Cells were grown until ˜80% confluence, and lysates were separated into nuclear, cytosolic, and membrane fractions. 250 μg of individual cellular fractions were incubated with antibodies against HIS (1:100, Sigma), capsase 8 (N-terminus) (1:100, Abcam), Bcl-2 (1:100, Cell Signaling Technologies) or a non-specific anti-mouse IgG antibody as control (Cell Signaling Technologies), in PBS overnight (4° C.). Protein:Antibody mixture was then incubated with […] of Protein A:Protein G (Sigma) (1:1) beads for 4 hours (4° C.). For all complexes, beads were washed with PBS, and eluted with 2×SDS-loading buffer, and used for immunoblotting against caspase 8, HIS, or Bcl-2.
In order to determine the region of interaction between Bcl-2 and Procaspase 8, cells were also incubated with antibodies against caspase 8 targeting its C-terminus (Cell Signaling) or N-terminus (Abeam) in vitro for 24 hours at 1.5-3.0 μg prior to collecting and fractionating the cell lysates for immunoprecipitation. In addition, to assess if exogenous SPARC interferes with the interaction of procaspase 8 and Bcl-2, cells were incubated with 10 μg/ml of SPARC for 72-hrs, in the presence or absence of antibodies against SPARC (3 μg, Hematologic Technologies) for 24 hrs, prior to collection for cellular fractionation and immunoprecipitation.

[16] = Homo sapiens, 1000 μM 5-FU for 24 hours only, read-out: decrease in cell viability

T2 sequence (Q14790 whole entry): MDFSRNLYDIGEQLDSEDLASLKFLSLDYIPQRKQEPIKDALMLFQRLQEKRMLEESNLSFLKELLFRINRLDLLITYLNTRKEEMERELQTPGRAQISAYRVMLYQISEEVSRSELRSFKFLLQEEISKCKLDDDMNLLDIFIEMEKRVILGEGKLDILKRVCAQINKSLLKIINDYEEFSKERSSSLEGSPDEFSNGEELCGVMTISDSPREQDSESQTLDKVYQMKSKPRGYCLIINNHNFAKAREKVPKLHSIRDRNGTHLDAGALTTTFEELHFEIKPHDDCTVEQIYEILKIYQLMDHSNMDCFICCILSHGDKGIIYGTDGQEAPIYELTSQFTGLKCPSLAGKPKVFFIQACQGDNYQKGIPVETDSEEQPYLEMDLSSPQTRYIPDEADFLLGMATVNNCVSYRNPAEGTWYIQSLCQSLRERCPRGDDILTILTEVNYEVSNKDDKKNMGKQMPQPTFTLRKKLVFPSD
T1 sequence (Q14790 whole entry, the tested form may be a part): as the sequence (Q14790 whole entry) above

For z-LEHD-fmk•TFA, which “effect of Caspase 9-like inhibitor on 5-FU-induced decrease in cell viability” value (MIP/SP cells [1]; inhibitor then 5-FU) is on record?
The value was “preventing a significant decrease in cell viability”.

And the “effect of Caspase 9-like inhibitor on 5-FU-induced decrease in cell viability” value (MIP/ZEO cells [2]; inhibitor then 5-FU)?
Its value is “preventing a significant decrease in cell viability”.

For “SEQ ID NO: 20: truncated SPARC polypeptide comprising a sequence near the SPARC amino terminus (APQQEALPDETEVVEETVAEVTEVSVGANPVQVEVGEFDDGAEETEEEVVA; SPARC Polypeptide Expressed in MIP/NT cells)”, which “interaction with Procaspase 8 (co-immunoprecipitation)” value (Procaspase 8) is on record?
The value was “involves a SPARC domain which is within the amino acid sequence of SEQ ID NO: 20”.

Which “effect of Caspase 8-like inhibitor on 5-FU-induced decrease in cell viability” value (MIP/SP cells [1]; pre-incubation with inhibitor (as low as 10 μM), then 1000 μM 5-FU) does the source give for z-IETD-fmk here?
Its value is “prevented a significant decrease in cell viability”.

What about the “effect of Caspase 8-like inhibitor on 5-FU-induced decrease in cell viability” value (MIP/ZEO cells [2]; inhibitor 50 μM, then 5-FU) of the same molecule?
Its value is “no such effect could be demonstrated”.

Which IC50 [3] does the source give for `CC(=O)O[C@H]1C(=O)[C@@]2(C)[C@H]([C@H](OC(=O)c3ccccc3)[C@]3(O)C[C@H](OC(=O)[C@H](O)[C@@H](NC(=O)c4ccccc4)c4ccccc4)C(C)=C1C3(C)C)[C@]1(OC(C)=O)CO[C@@H]1C[C@@H]2O` [TAX, Taxol] here?
The IC50 was 0.012 µg/mL (≈ 0.0141 µM).

With `O=c1[nH]cc(F)c(=O)[nH]1` [5-FU, 5-fluorouracil] as the molecule, how does the “Caspase 3/7 activity” value ([4]; MIP/ZEO cells, 12 hours after incubation with 5-FU) read?
The value was 9954.0±1104.8 RLU.

And the “Caspase 3/7 activity” value ([4]; MIP/ZEO, 5-FU, scramble control)?
Its value is 1915.0±661.3 RLU.

And the “Caspase 3/7 activity” value ([4]; MIP/ZEO, 5-FU, transfected with Caspase 8 siRNA)?
Its value is 2321.3±661.3 RLU.

And the “Caspase 8 protein activity in tumors” value [5]?
Its value is “highest”.

And the “cell viability (viable cells)” value (MIP/SP cells [6])?
Its value is 97.6±1.4%.

What about the viable cells (HCT116 cells) of the same molecule?
The viable cells was 88.2±2.3%.

What about the “Caspase 3 activation” value [7] of the same molecule?
The value was “No Caspase 3 activation was observed”.

And the cytotoxicity at 1000 µM (MIP/SP cells [1]; [16])?
The cytotoxicity at 1000 µM was 16.8 ± 4.5%.

What about the “apoptotic cells (TUNEL)” value (MIP/SP cells [8]; MIP/SP exposed to 5-FU, no Caspase 8 inhibition) of the same molecule?
The value was 20.7±6.9%.

What about the “apoptotic cells (TUNEL)” value (MIP/SP cells [8]; MIP/SP, 5-FU following Caspase 8 gene knock-down) of the same molecule?
The value was 0.5±0.5%.

And the “decrease in cell viability” value (MIP/ZEO cells [2]; 5-FU-treated after pre-incubation with Caspase 8-like inhibitor)?
The value was 14.0±4.6%.

What about the cytotoxicity at 1000 µM (MIP/ZEO cells [2]; [16]) of the same molecule?
The cytotoxicity at 1000 µM was 21 ± 5.9%.

What about the “apoptosis response (TUNEL)” value (MIP/5FU cells [9]) of the same molecule?
The value was “did not respond to 5-FU treatment significantly”.

And the “Caspase 3/7 activity” value ([10]; MIP/SP cells, 12 hours after incubation with 5-FU)?
Its value is 16397.0±2787.6 RLU.

And the “Caspase 3/7 activity” value ([10]; MIP/SP transfected with Caspase 8 siRNA, 5-FU treated)?
The value was 291.0±34.7 RLU.

And the “Caspase 3/7 activity” value ([10]; control MIP/SP cells, 5-FU treated)?
The value was 5501.0±800.0 RLU.

What about the “apoptotic cells (TUNEL)” value (MIP/ZEO cells [11]; no transfection with Caspase 8 siRNA) of the same molecule?
The value was 12.2±0.7%.

And the “apoptotic cells (TUNEL)” value (MIP/ZEO cells [11]; transfection with Caspase 8 siRNA)?
The value was 12.5±2.4%.

What about the cell viability (MIP/ZEO cells [12]; following 5-FU treatment (FIG. 3B)) of the same molecule?
Its cell viability is 75.5±0.5%.

And the viability at 1200 µM (MIP/ZEO cells [12]; Homo sapiens, 5-FU 1200 μM (FIG. 3A))?
The viability at 1200 µM was 52.1 ± 1.7%.

And the “effect of 5-FU on cell viability” value (MIP/5FU cells [13])?
The value was “remained unaffected”.

B1: SPARC: Secreted Protein, Acidic, Rich in Cysteines, a 281 amino acid glycoprotein (protein)
chain: APQQEALPDETEVVEETVAEVTEVSVGANPVQVEVGEFDDGAEETEEEVVAENPCQNHHCKHGKVCELDENNTPMCVCQDPTSCPAPIGEFEKVCSNDNKTFDSSCHFFATKCTLEGTKKGHKLHLDYIGPCKYIPPCLDSELTEFPLRMRDWLKNVLVTLYERDEDNNLLTEKQKLRVKKIHENEKRLEAGDHPVELLARDFEKNYNMYIFPVHWQFGQLDQHPIDGYLSHTELAPLRAPLIPMEHCTTRFFETCDLDNDKYIALDEWAGCFGIKQKDIDKDLVI
modifications: left off: small tags and cut ends
notes: Secreted Protein, Acidic, Rich in Cysteines, a 281 amino acid glycoprotein
With B1 as the molecule, how does the “Caspase 8 expression in tumor xenografts” value [14] read?
The value was “higher levels of Caspase 8”.

And the “blocking of interaction between Bcl-2 and Procaspase 8” value [15]?
The value was “can be blocked”.
